The values that follow come from PMC12140054, “Small glycomimetic antagonists of the cytomegalovirus glycoprotein UL141 prevent binding to TRAIL death receptor” (The Journal of Biological Chemistry, 2025).

Experiment [1] concerns the target T1, HCMV UL141 (Human cytomegalovirus, UniProt Q6RJQ3).
T1 construct: we expressed and purified the full-length recombinant UL141 (amino acids 30–300); made in house
As to the kind of experiment: biochemical. It is filed as binding. Here is the method:
To prepare HCMV UL141 for binding studies, biotinylation was performed using the BiotinTag Micro Biotinylation Kit (Sigma-Aldrich). Purified UL141 protein (50 μg in 50 μl) was mixed with 50 μl of BiotinTag reaction buffer provided in the kit. Sulfo-NHS-Biotin reagent was freshly prepared by dissolving the vial contents in 1 ml of sterile water. A calculated volume of the biotin reagent was added to achieve a 20:1 M excess of biotin to protein. The reaction mixture was incubated for 30 min at room temperature with gentle mixing to ensure efficient labeling. Following incubation, unreacted biotin was removed using the desalting column included in the kit. The biotinylated UL141 protein was eluted in 50 mM Hepes, pH 7.5, 150 mM NaCl. Biotin incorporation was verified using a colorimetric biotin quantification assay (e.g., HABA assay). The biotinylated protein was then quantified spectrophotometrically using a NanoDrop instrument and concentrated to the desired level for Biacore or ELISA binding studies. The biotinylated protein was stored at 4 °C for short-term use or −80 °C for long-term storage to maintain stability.
The sensor surface of an SA chip (Cytiva) was preconditioned with HBS-EP buffer (10 mM Hepes, 150 mM NaCl, 3 mM EDTA, 0.005% Tween-20) to stabilize the baseline and remove any loosely bound streptavidin. Before use, the buffer was filtered through a 0.2 μm polystyrene filter and degassed under vacuum for 10 min to eliminate air bubbles. Biotinylated HCMV UL141 was immobilized on the SA chip, maintaining biotinylation at 0.5 to 1.5 mol per mole of protein. Excess biotin was removed via gel filtration. UL141 was injected at 30 μl/min, achieving maximum immobilization (4000–6000 RU), followed by washing with running buffer. Residual unbound proteins were optionally removed with a 2 M NaCl pulse. To ensure optimal SPR signal detection, which depends on the analyte mass bound to the ligand, relatively high amounts of ligand were immobilized on the sensor chip to achieve a significant response signal upon binding of the small compound. […] Regeneration of the chip surface, when necessary, was performed using 5 mM NaOH. Control injections of zero concentrations and duplicate injections of selected concentrations were included to validate surface regeneration. […]

The target in experiment [2] is T2, UL141 D232A mutant (Human cytomegalovirus, UniProt Q6RJQ3, D232A).
T2 construct: extracellular domain of HCMV UL141 (residues 30–300, Gene ID: 3077418); made in house; host or cells: Sf9 (baculovirus)
T2 sequence (Q6RJQ3 30-300 D232A): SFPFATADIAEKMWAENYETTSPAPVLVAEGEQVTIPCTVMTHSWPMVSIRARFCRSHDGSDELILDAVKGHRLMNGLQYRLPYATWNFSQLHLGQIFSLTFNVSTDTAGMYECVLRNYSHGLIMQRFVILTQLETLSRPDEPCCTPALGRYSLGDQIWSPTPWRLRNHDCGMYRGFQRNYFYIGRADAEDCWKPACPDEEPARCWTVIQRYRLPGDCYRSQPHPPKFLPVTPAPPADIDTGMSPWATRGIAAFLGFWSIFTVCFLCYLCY
Description: SPR binding to UL141 alanine mutant D232A. Conditions: D232A (site C), 0 to 25 μM. An excerpt: Collectively, the findings from molecular modeling, ELISA, and SPR prompted a more detailed investigation into the binding mechanisms, leading us to explore the possibility of distinct binding sites for UL141 in its interaction with glycomimetic compound 18. To further clarify this, we conducted mutational analysis on the surface residues of UL141 to identify specific binding sites involved in this interaction. The following residues were selected for alanine-scanning mutagenesis, followed by SPR analysis to assess their contribution to the binding affinity of UL141 for 18: Asp91, Glu92, Arg82, Arg80, and Asp37 (site A); Tyr148 and Arg146 (site B); and Arg85, Leu163, Glu164, Pro231, Trp235, and Asp232 (site C) (Fig. 9A). The UL141 mutants were generated through single alanine substitutions and recombinantly produced in the BV-Sf9 system following the same protocol as the WT UL141. […] The binding affinities of the remaining mutants were assessed using SPR, as illustrated in Figure 9. […] Binding interactions were monitored over a 300-s period. […]
Figure 9 Mutational analysis of UL141 binding sites for antagonist 18. […] An alternative representation of the same SPR data, showing all measured concentration points, is provided in panel (C), with the structure of compound 18 included for reference. […]
(In general: SPR reads the build-up and loss of mass on a sensor chip optically.)

Where [3] appears, read: UL141 immobilized, substance as analyte, 1:1 Langmuir model.
Where [4] appears, read: UL141 immobilized, substance as analyte, 1:1 Langmuir model, listed as cmp 18.

Values joined by “and” are separate entries in the source; they are usually repeats but may differ in a detail not shown here. Identical values can stand only once.

T1 sequence (Q6RJQ3 30-300): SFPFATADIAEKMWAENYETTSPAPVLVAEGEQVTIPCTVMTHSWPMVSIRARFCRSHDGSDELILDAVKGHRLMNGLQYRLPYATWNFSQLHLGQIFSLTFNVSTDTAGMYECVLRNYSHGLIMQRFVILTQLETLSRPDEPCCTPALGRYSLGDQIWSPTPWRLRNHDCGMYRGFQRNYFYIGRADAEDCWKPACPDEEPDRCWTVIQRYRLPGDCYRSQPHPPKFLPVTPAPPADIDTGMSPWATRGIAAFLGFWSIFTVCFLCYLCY

For the compound `CCC1C(O)C(O)CN1Cc1ccc(I)cc1` (centres unmarked) [Compound 18], the Kd in experiment [1] (UL141 immobilized (ligand), substance in solution (analyte), 1:1 Langmuir model, 25 °C) was 2.93 µM; in experiment [1] (binding to UL141, SPR), 2.93 µM and 2.9 µM. The same compound returned an Rmax in experiment [1] (UL141 immobilized, substance as analyte) of 19. Moreover, the koff in experiment [1] (setting [3]) was 0.157 s⁻¹; in experiment [1] (setting [4]), “(1.57 ± 0.039) × 10^−1 s^−1”. Moreover, the kon in experiment [1] (setting [3]) was 53600 M⁻¹ s⁻¹; in experiment [1] (setting [4]), “(5.36 ± 0.003) × 10^4 M^−1s^−1”. Further, in experiment [2], the “binding to UL141 mutant” value is “prevented binding”.

The term Kd denotes the equilibrium constant for the complex coming apart. A higher Kd goes with weaker binding. As a reminder, the koff is a measure of how fast the partners let go of each other. By kon is commonly meant a measure of how fast the partners come together. Low values mean slower complex formation, high ones faster complex formation.
